According to US20230381157A1, “RIFABUTIN FOR THE TREATMENT OF ACINETOBACTER BAUMANNII” (University of Southern California, priority 2018, published 2023):
Converted amounts (≈) assume the structure as drawn. “And” between values parts separate entries of the source, which are not always exact repeats. Identical values can stand only once. Like-named read-outs stand apart in the source and are kept apart here.

Tests used:
A. baumannii HUMC1 [1] = test: MIC, broth microdilution in MHII, RPMI or modified media; format: cell-based, Acinetobacter baumannii
HEK293T = test: Specificity: mammalian cell cytotoxicity / inhibition of bacteria growth (CC50/IC50)
A. baumannii HUMC1 [2] = test: IC50 dose response, inhibition of bacterial growth (BacTiter-Glo viability); format: cell-based, Acinetobacter baumannii; conditions: 11-point dose response, read-out: IC50
A. baumannii ATCC 17978 = test: as above; format: cell-based, Acinetobacter baumannii; conditions: 11-point dose response, read-out: IC50
S. aureus LAC [3] = test: microbe, parasite or virus in culture; format: cell-based; conditions: Staphylococcus aureus, read-out: MIC
Acinetobacter baumannii = test: Galleria mellonella infection model; format: in vivo; conditions: Galleria mellonella; doses as high as 5 mg/kg
A. baumannii HUMC1 [4] = format: in vivo, mouse
A. baumannii [5] = test: MIC, broth microdilution, A. baumannii clinical isolates / strain panel; format: cell-based, Acinetobacter baumannii; conditions: Acinetobacter baumannii; for MIC: read-out: MIC; for MIC50 / MIC90: A. baumannii strain panel; for MIC50: read-out: MIC50; for MIC90: read-out: MIC90
A. baumannii HUMC1 [6] = format: in vivo, mouse; remark: listed apart in the source
A. baumannii [7] = format: cell-based, Acinetobacter baumannii
K. pneumonia = test: MIC, broth microdilution; format: cell-based; conditions: Klebsiella pneumoniae, read-out: MIC
E. coli = test: MIC, broth microdilution; format: cell-based; conditions: Escherichia coli, E. coli JJ1886
S. aureus LAC [8] = format: cell-based, Staphylococcus aureus; conditions: TSA
E. coli JJ1886 = format: cell-based, Escherichia coli; conditions: TSA
[9] = IC50 vs A. baumannii ATCC 17978, RPMI + 50% serum
[10] = IC50 vs A. baumannii ATCC 17978, RPMI alone
[11] = IC50 vs A. baumannii HUMC1, RPMI + 50% serum
[12] = IC50 vs A. baumannii HUMC1, RPMI alone
[13] = Acinetobacter baumannii, HUMC1, 24 h, HUMC1, RPMI + 50% Serum
[14] = Acinetobacter baumannii, HUMC1, HUMC1, RPMI + 50% Serum
[15] = Acinetobacter baumannii, HUMC1, HUMC1, RPMI
[16] = Acinetobacter baumannii, ATCC17978, ATCC 17978, RPMI + 50% Serum
[17] = Acinetobacter baumannii, ATCC17978, ATCC 17978, RPMI

## N#CC(C#N)=NNc1cccc(Cl)c1 [CCCP]
A. baumannii HUMC1 [1]; HUMC1, inhibitor alone
  MIC of efflux pump inhibitor alone: 8 µg/mL

## CO[C@H]1/C=C/O[C@@]2(C)Oc3c(C)c(O)c4c(O)c(c(/C=N/N=C/N5CCCCC5)c(O)c4c3C2=O)NC(=O)/C(C)=C\C=C\[C@H](C)[C@H](O)[C@@H](C)[C@@H](O)[C@@H](C)[C@H](OC(C)=O)[C@@H]1C [FCE-22250]
HEK293T; [9]
  Specificity HEK293T (CC50/IC50): 0.950
HEK293T; [10]
  Specificity HEK293T (CC50/IC50): 3.441
HEK293T; [11]
  Specificity HEK293T (CC50/IC50): 1.545
HEK293T; [12]
  Specificity HEK293T (CC50/IC50): 3.710
A. baumannii HUMC1 [2]; HUMC1, RPMI + 50% Serum
  IC50: 21.7 µM
A. baumannii HUMC1 [2]; HUMC1, RPMI
  IC50: 9.03 µM
A. baumannii ATCC 17978; ATCC 17978, RPMI + 50% Serum
  IC50: 35.3 µM
A. baumannii ATCC 17978; ATCC 17978, RPMI
  IC50: 9.74 µM

## CO[C@H]1/C=C/O[C@@]2(C)Oc3c(C)c(O)c4c(=O)c(c5oc6cc(N7CCN(CC(C)C)CC7)cc(O)c6nc-5c4c3C2=O)NC(=O)/C(C)=C\C=C\[C@H](C)[C@H](O)[C@@H](C)[C@@H](O)[C@@H](C)[C@H](OC(C)=O)[C@@H]1C [rifalazil]
HEK293T; [9]
  Specificity HEK293T (CC50/IC50): 0.609
HEK293T; [10]
  Specificity HEK293T (CC50/IC50): 1.752
HEK293T; [11]
  Specificity HEK293T (CC50/IC50): 4.055
HEK293T; [12]
  Specificity HEK293T (CC50/IC50): 1.523
A. baumannii HUMC1 [2]; [13]
  IC50: 7.51 µM
A. baumannii HUMC1 [2]; [14]
  IC50: 7.51 µM
A. baumannii HUMC1 [2]; [15]
  IC50: 20 µM
A. baumannii ATCC 17978; [16]
  IC50: 50 µM
A. baumannii ATCC 17978; [17]
  IC50: 17.4 µM

## CO[C@H]1/C=C/O[C@@]2(C)Oc3c(C)c(O)c4c(O)c(c(/C=N/N5CCN(C)CC5)c(O)c4c3C2=O)NC(=O)/C(C)=C\C=C\[C@H](C)[C@H](O)[C@@H](C)[C@@H](O)[C@@H](C)[C@H](OC(C)=O)[C@@H]1C [rifampin]
A. baumannii HUMC1 [1]; Acinetobacter baumannii, HUMC1, HUMC1, 0.01% Triton X-100, read-out: MIC
  MIC: 2 µg/mL (≈ 2.43 µM)
A. baumannii HUMC1 [1]; Acinetobacter baumannii, HUMC1, HUMC1, 0.05% Tween 20, MHII, read-out: MIC
  MIC: 2 µg/mL (≈ 2.43 µM)
A. baumannii HUMC1 [1]; Acinetobacter baumannii, HUMC1, HUMC1, 25° C., MHII, read-out: MIC
  MIC: 2 µg/mL (≈ 2.43 µM)
A. baumannii HUMC1 [1]; Acinetobacter baumannii, HUMC1, HUMC1, 25° C., RPMI, read-out: MIC
  MIC: 2 µg/mL (≈ 2.43 µM)
A. baumannii HUMC1 [1]; Acinetobacter baumannii, HUMC1, HUMC1, MHII (CAMHB), read-out: MIC
  MIC: 4 µg/mL (≈ 4.86 µM)
A. baumannii HUMC1 [1]; Acinetobacter baumannii, HUMC1, HUMC1, RPMI + Essential Amino Acid Solution (50×), read-out: MIC
  MIC: 6.25 µg/mL
A. baumannii HUMC1 [1]; Acinetobacter baumannii, HUMC1, HUMC1, RPMI + L-Histidine 0.5 mM
  MIC: 12.5 µg/mL
A. baumannii HUMC1 [1]; Acinetobacter baumannii, HUMC1, HUMC1, RPMI + L-Tryptophan 0.125 mM
  MIC: 12.5 µg/mL
A. baumannii HUMC1 [1]; HUMC1, 25° C. or 30° C. compared to 37° C., MHII or RPMI
  difference in MICs at lower temperature: did not observe any difference
A. baumannii HUMC1 [1]; HUMC1, MHII (CAMHB in b45)
  MIC: 3.125 µg/mL (≈ 3.8 µM)
A. baumannii HUMC1 [1]; HUMC1, MHII (CAMHB in b45), listed as Rifampin
  MIC: 3.125 µg/mL (≈ 3.8 µM)
A. baumannii HUMC1 [1]; HUMC1, MHII (CAMHB), listed as RIF
  MIC: 2 µg/mL and 3.125 µg/mL
A. baumannii HUMC1 [1]; HUMC1, RPMI
  MIC: 3.125 µg/mL (≈ 3.8 µM)
A. baumannii HUMC1 [1]; HUMC1, RPMI, listed as Rifampin
  MIC: 3.125 µg/mL (≈ 3.8 µM)
S. aureus LAC [3]; MHII
  MIC: 0.025 µg/mL (≈ 0.0304 µM)
S. aureus LAC [3]; RPMI
  MIC: 0.05 µg/mL (≈ 0.0608 µM)
Acinetobacter baumannii
  protection: only a partial protection
HEK293T; [9]
  Specificity HEK293T (CC50/IC50): 2.741
HEK293T; [10]
  Specificity HEK293T (CC50/IC50): 3.621
HEK293T; [11]
  Specificity HEK293T (CC50/IC50): 6.256
HEK293T; [12]
  Specificity HEK293T (CC50/IC50): 4.538
A. baumannii HUMC1 [4]; IV infection, RIF 10 or 30 mg/kg/daily for 3 days
  protection at minimum dose test: only partially protective
A. baumannii HUMC1 [4]; bacteremia model, 10 mg/kg for 3 days, 2 days post infection, PBS/control 0%
  survival: about 50%
A. baumannii HUMC1 [4]; murine bacteremia, 10 mg/kg
  protection: 50%
A. baumannii [5]; A. baumannii (strain not named), MHII
  MIC: 4 µg/mL (≈ 4.86 µM)
A. baumannii [5]; A. baumannii (strain not named), RPMI with serum
  MIC: 4 µg/mL (≈ 4.86 µM)
A. baumannii [5]; A. baumannii VA-AB21, MHII
  MIC: 3.12 µg/mL (≈ 3.8 µM)
A. baumannii [5]; A. baumannii VA-AB21, RPMI
  MIC: > 6.12 µg/mL
A. baumannii [5]; CAMHB
  MIC50: 3.13 µg/mL (≈ 3.8 µM)
  MIC90: 6.25 µg/mL (≈ 7.59 µM)
A. baumannii [5]; RPMI
  MIC50: 12.5 µg/mL (≈ 15.2 µM)
  MIC90: 25 µg/mL (≈ 30.4 µM)
A. baumannii [5]; ATCC17978, A. baumannii ATCC17978 and HUMC1, MHII
  MIC: 2 µg/mL (≈ 2.43 µM)
A. baumannii [5]; ATCC17978, A. baumannii ATCC17978 and HUMC1, RPMI
  MIC: 8 µg/mL (≈ 9.72 µM)
A. baumannii HUMC1 [6]; 5 mg/kg for 3 days, 2 days post infection
  survival: < 20%
A. baumannii HUMC1 [6]; 5 mg/kg/daily for 3 days, oral gavage
  survival: did not protect from mortality
A. baumannii HUMC1 [6]; 5 mg/kg/daily for 3 days, oral gavage, listed as RFP
  survival: did not improve survival vs. control
A. baumannii HUMC1 [6]; 5 mg/kg/daily for 3 days, oral gavage, listed as RIF
  survival: did not do any better as compared to the PBS control group
A. baumannii HUMC1 [6]; 5 mg/kg/daily for 3 days, oral gavage, lungs at 24 hrs post infection
  lung CFUs: did not reduce CFUs compared to control
A. baumannii HUMC1 [6]; murine pneumonia, 5 mg/kg, day 7 post-infection
  bacterial burden: ~6.5 Log10(CFU/mg lung)
A. baumannii [7]; A. baumannii ABNIH1, MHII
  Mutation Frequency: 4.17E−08
A. baumannii [7]; A. baumannii ATCC17978, MHII
  Mutation Frequency: 5.14E−09
A. baumannii [7]; A. baumannii ATCC17978, TSA
  Mutation Frequency: 7.95E−09
A. baumannii [7]; A. baumannii HUMC1, MHII
  Mutation Frequency: 9.19E−09
A. baumannii [7]; A. baumannii HUMC1, TSA
  Mutation Frequency: 1.44E−08
A. baumannii [7]; A. baumannii LAC-4, MHII
  Mutation Frequency: 2.62E−08
K. pneumonia; K. pneumonia KP-3, MHII
  MIC: 3.12 µg/mL (≈ 3.8 µM)
K. pneumonia; K. pneumonia KP-3, RPMI
  MIC: 1.56 µg/mL (≈ 1.9 µM)
K. pneumonia; K. pneumonia KPC-KP1, MHII
  MIC: 25 µg/mL (≈ 30.4 µM)
K. pneumonia; K. pneumonia KPC-KP1, RPMI
  MIC: 50 µg/mL (≈ 60.8 µM)
E. coli; MHII
  MIC: 6.25 µg/mL (≈ 7.59 µM)
E. coli; RPMI
  MIC: 25 µg/mL (≈ 30.4 µM)
S. aureus LAC [8]
  Mutation Frequency: 9.49E−08
A. baumannii HUMC1 [2]; [13]
  IC50: 7.99 µM
A. baumannii HUMC1 [2]; [14]
  IC50: 7.99 µM
A. baumannii HUMC1 [2]; [15]
  IC50: 11 µM
E. coli JJ1886
  Mutation Frequency: 2.21E−08
A. baumannii ATCC 17978; Acinetobacter baumannii, ATCC17978, 24 h, ATCC 17978, RPMI + 50% Serum
  IC50: 18.2 µM
A. baumannii ATCC 17978; [16]
  IC50: 18.2 µM
A. baumannii ATCC 17978; [17]
  IC50: 13.8 µM
